Experimental data published in PubChem BioAssay AID2060624 (Molecular Pharmacology Branch, DTP, NCI, 2025).
pIC50: −log10 of the molar value.

System: 217524-143-R1-J4-PDC spheroids with HUVEC/MSC, viability
Experiment: Anticancer human tumor 217524-143-R1-J4-PDC patient-derived pancreatic carcinoma cell line growth inhibition [CLK]
Settings: for pIC50: curve of first compound; for viability, T/C: stronger effect = lower value
Outline: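 Multi-cell-type spheroids combined patient-derived tumor cells with HUVEC endothelial cells and human mesenchymal stem cells. Paired agents were dosed in half-log steps down from about clinical Cmax, or from 10 microM where Cmax was unknown.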

[1] = second compound 0.0316 µM, first compound 0.00316 µM
[2] = second compound 0.0316 µM, first compound 0.01 µM
[3] = second compound 0.0316 µM, first compound 0.0316 µM
[4] = second compound 0.0316 µM, first compound 0.1 µM
[5] = second compound 0.1 µM, first compound 0.00316 µM
[6] = second compound 0.1 µM, first compound 0.01 µM
[7] = second compound 0.1 µM, first compound 0.0316 µM
[8] = second compound 0.1 µM, first compound 0.1 µM
[9] = second compound 0.316 µM, first compound 0.00316 µM
[10] = second compound 0.316 µM, first compound 0.01 µM
[11] = second compound 0.316 µM, first compound 0.0316 µM
[12] = second compound 0.316 µM, first compound 0.1 µM
[13] = second compound 1 µM, first compound 0.00316 µM
[14] = second compound 1 µM, first compound 0.01 µM
[15] = second compound 1 µM, first compound 0.0316 µM
[16] = second compound 1 µM, first compound 0.1 µM
[17] = second compound 3.16 µM, first compound 0.00316 µM
[18] = second compound 3.16 µM, first compound 0.01 µM
[19] = second compound 3.16 µM, first compound 0.0316 µM
[20] = second compound 3.16 µM, first compound 0.1 µM
[21] = second compound 10 µM, first compound 0.00316 µM
[22] = second compound 10 µM, first compound 0.01 µM
[23] = second compound 10 µM, first compound 0.0316 µM
[24] = second compound 10 µM, first compound 0.1 µM
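Further: spheroids exposed to agents for seven days before reading.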
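Wherever viability, T/C is given: 100% = DMSO vehicle control viability.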

**Q.** With `CCc1c2c(nc3ccc(O)cc13)-c1cc3c(c(=O)n1C2)COC(=O)[C@]3(O)CC` + CN1CCN(c2cc(C(=O)Nc3cc4cc(-c5cnn(C)c5)ccc4cn3)ccn2)CC1 as the compound, how does the pIC50 (second compound 0.0316 µM) read?
**A.** The pIC50 was greater than 8.50.

**Q.** What about the pIC50 (second compound 0.1 µM) of the same compound?
**A.** Its pIC50 is greater than 8.50.

**Q.** What about the pIC50 (second compound 0.316 µM) of the same compound?
**A.** The pIC50 was greater than 8.50.

**Q.** What about the pIC50 (second compound 1 µM) of the same compound?
**A.** The pIC50 was greater than 8.50.

**Q.** What about the pIC50 (second compound 3.16 µM) of the same compound?
**A.** Its pIC50 is greater than 8.50.

**Q.** What about the pIC50 (second compound 10 µM) of the same compound?
**A.** Its pIC50 is greater than 8.50.

**Q.** What about the viability, T/C [1] of the same compound?
**A.** The viability, T/C was 46.2%.

**Q.** What about the viability, T/C [2] of the same compound?
**A.** The viability, T/C was 34.1%.

**Q.** And the viability, T/C [3]?
**A.** The viability, T/C was 28.7%.

**Q.** What about the viability, T/C [4] of the same compound?
**A.** The viability, T/C was 25.2%.

**Q.** What about the viability, T/C (second compound 0.0316 µM, first compound 0.316 µM) of the same compound?
**A.** Its viability, T/C is 17.5%.

**Q.** And the viability, T/C (second compound 0.0316 µM, first compound 1 µM)?
**A.** Its viability, T/C is 6.45%.

**Q.** What about the viability, T/C [5] of the same compound?
**A.** Its viability, T/C is 35.9%.

**Q.** And the viability, T/C [6]?
**A.** Its viability, T/C is 30.1%.

**Q.** And the viability, T/C [7]?
**A.** The viability, T/C was 21.9%.

**Q.** And the viability, T/C [8]?
**A.** Its viability, T/C is 17.5%.

**Q.** What about the viability, T/C (second compound 0.1 µM, first compound 0.316 µM) of the same compound?
**A.** Its viability, T/C is 14.5%.

**Q.** What about the viability, T/C (second compound 0.1 µM, first compound 1 µM) of the same compound?
**A.** Its viability, T/C is 5.83%.

**Q.** And the viability, T/C [9]?
**A.** Its viability, T/C is 14.8%.

**Q.** What about the viability, T/C [10] of the same compound?
**A.** The viability, T/C was 12.7%.

**Q.** What about the viability, T/C [11] of the same compound?
**A.** The viability, T/C was 10.8%.

**Q.** And the viability, T/C [12]?
**A.** Its viability, T/C is 4%.

**Q.** What about the viability, T/C (second compound 0.316 µM, first compound 0.316 µM) of the same compound?
**A.** The viability, T/C was 2.32%.

**Q.** What about the viability, T/C (second compound 0.316 µM, first compound 1 µM) of the same compound?
**A.** The viability, T/C was 1.82%.

**Q.** And the viability, T/C [13]?
**A.** Its viability, T/C is 1.37%.

**Q.** What about the viability, T/C [14] of the same compound?
**A.** The viability, T/C was 1.13%.

**Q.** What about the viability, T/C [15] of the same compound?
**A.** The viability, T/C was 0.98%.

**Q.** What about the viability, T/C [16] of the same compound?
**A.** Its viability, T/C is 1.39%.

**Q.** What about the viability, T/C (second compound 1 µM, first compound 0.316 µM) of the same compound?
**A.** Its viability, T/C is 1.84%.

**Q.** And the viability, T/C (second compound 1 µM, first compound 1 µM)?
**A.** The viability, T/C was 2.32%.

**Q.** What about the viability, T/C [17] of the same compound?
**A.** Its viability, T/C is 1.13%.

**Q.** What about the viability, T/C [18] of the same compound?
**A.** The viability, T/C was 0.69%.

**Q.** And the viability, T/C [19]?
**A.** The viability, T/C was 1.06%.

**Q.** And the viability, T/C [20]?
**A.** Its viability, T/C is 1.74%.

**Q.** What about the viability, T/C (second compound 3.16 µM, first compound 0.316 µM) of the same compound?
**A.** Its viability, T/C is 1.87%.

**Q.** What about the viability, T/C (second compound 3.16 µM, first compound 1 µM) of the same compound?
**A.** Its viability, T/C is 2.05%.

**Q.** What about the viability, T/C [21] of the same compound?
**A.** Its viability, T/C is 0.09%.

**Q.** And the viability, T/C [22]?
**A.** The viability, T/C was 0.16%.

**Q.** What about the viability, T/C [23] of the same compound?
**A.** Its viability, T/C is 0.24%.

**Q.** What about the viability, T/C [24] of the same compound?
**A.** Its viability, T/C is 0.19%.

**Q.** What about the viability, T/C (second compound 10 µM, first compound 0.316 µM) of the same compound?
**A.** Its viability, T/C is 0.31%.

**Q.** What about the viability, T/C (second compound 10 µM, first compound 1 µM) of the same compound?
**A.** The viability, T/C was 0.19%.

**Q.** `Cn1ncnc1[C@H]1c2n[nH]c(=O)c3cc(F)cc(c23)N[C@@H]1c1ccc(F)cc1` + CN1CCN(c2cc(C(=O)Nc3cc4cc(-c5cnn(C)c5)ccc4cn3)ccn2)CC1 was tested. Which pIC50 (second compound 0.0316 µM) did it give?
**A.** Its pIC50 is less than 7.00.

**Q.** What about the pIC50 (second compound 0.1 µM) of the same compound?
**A.** The pIC50 was 8.77.

**Q.** What about the pIC50 (second compound 0.316 µM) of the same compound?
**A.** The pIC50 was greater than 9.50.

**Q.** And the pIC50 (second compound 1 µM)?
**A.** The pIC50 was greater than 9.50.

**Q.** What about the pIC50 (second compound 3.16 µM) of the same compound?
**A.** Its pIC50 is greater than 9.50.

**Q.** What about the pIC50 (second compound 10 µM) of the same compound?
**A.** The pIC50 was greater than 9.50.

**Q.** What about the viability, T/C (second compound 0.0316 µM, first compound 0.000316 µM) of the same compound?
**A.** The viability, T/C was 80.5%.

**Q.** And the viability, T/C (second compound 0.0316 µM, first compound 0.001 µM)?
**A.** The viability, T/C was 71%.

**Q.** What about the viability, T/C [1] of the same compound?
**A.** The viability, T/C was 61.8%.

**Q.** What about the viability, T/C [2] of the same compound?
**A.** The viability, T/C was 65.4%.

**Q.** And the viability, T/C [3]?
**A.** Its viability, T/C is 84.7%.

**Q.** What about the viability, T/C [4] of the same compound?
**A.** The viability, T/C was 60.3%.

**Q.** What about the viability, T/C (second compound 0.1 µM, first compound 0.000316 µM) of the same compound?
**A.** The viability, T/C was 54.1%.

**Q.** What about the viability, T/C (second compound 0.1 µM, first compound 0.001 µM) of the same compound?
**A.** The viability, T/C was 48.5%.

**Q.** And the viability, T/C [5]?
**A.** The viability, T/C was 50.8%.

**Q.** And the viability, T/C [6]?
**A.** The viability, T/C was 43.5%.

**Q.** And the viability, T/C [7]?
**A.** The viability, T/C was 50.1%.

**Q.** What about the viability, T/C [8] of the same compound?
**A.** Its viability, T/C is 42.8%.

**Q.** What about the viability, T/C (second compound 0.316 µM, first compound 0.000316 µM) of the same compound?
**A.** The viability, T/C was 21.2%.

**Q.** What about the viability, T/C (second compound 0.316 µM, first compound 0.001 µM) of the same compound?
**A.** Its viability, T/C is 23.4%.

**Q.** What about the viability, T/C [9] of the same compound?
**A.** Its viability, T/C is 18.8%.

**Q.** And the viability, T/C [10]?
**A.** Its viability, T/C is 17.7%.

**Q.** And the viability, T/C [11]?
**A.** Its viability, T/C is 18.8%.

**Q.** What about the viability, T/C [12] of the same compound?
**A.** The viability, T/C was 17.2%.

**Q.** What about the viability, T/C (second compound 1 µM, first compound 0.000316 µM) of the same compound?
**A.** The viability, T/C was 1.28%.

**Q.** What about the viability, T/C (second compound 1 µM, first compound 0.001 µM) of the same compound?
**A.** The viability, T/C was 1.4%.

**Q.** What about the viability, T/C [13] of the same compound?
**A.** The viability, T/C was 1.52%.

**Q.** And the viability, T/C [14]?
**A.** Its viability, T/C is 1.16%.

**Q.** What about the viability, T/C [15] of the same compound?
**A.** Its viability, T/C is 1.67%.

**Q.** And the viability, T/C [16]?
**A.** The viability, T/C was 1.12%.

**Q.** And the viability, T/C (second compound 3.16 µM, first compound 0.000316 µM)?
**A.** The viability, T/C was 0.67%.

**Q.** What about the viability, T/C (second compound 3.16 µM, first compound 0.001 µM) of the same compound?
**A.** Its viability, T/C is 0.66%.

**Q.** And the viability, T/C [17]?
**A.** Its viability, T/C is 0.75%.

**Q.** What about the viability, T/C [18] of the same compound?
**A.** Its viability, T/C is 0.62%.

**Q.** And the viability, T/C [19]?
**A.** The viability, T/C was 0.71%.

**Q.** What about the viability, T/C [20] of the same compound?
**A.** The viability, T/C was 0.48%.

**Q.** And the viability, T/C (second compound 10 µM, first compound 0.000316 µM)?
**A.** The viability, T/C was 0.16%.

**Q.** What about the viability, T/C (second compound 10 µM, first compound 0.001 µM) of the same compound?
**A.** Its viability, T/C is 0.26%.

**Q.** What about the viability, T/C [21] of the same compound?
**A.** The viability, T/C was 0.15%.

**Q.** What about the viability, T/C [22] of the same compound?
**A.** The viability, T/C was 0.25%.

**Q.** What about the viability, T/C [23] of the same compound?
**A.** The viability, T/C was 0.18%.

**Q.** What about the viability, T/C [24] of the same compound?
**A.** The viability, T/C was 0.17%.
